SMILES strings stand for the structures. Read-outs that look alike come from different tables or passages of the source.

What all share (assay type): biochemical
One test addresses T1, PTPN22 (Homo sapiens, UniProt Q9Y2R2).
T1 construct: LYP/PTPN22, residues 1-294; made in house; host or cells: E. coli BL21(DE3)
T1 sequence (Q9Y2R2 1-294): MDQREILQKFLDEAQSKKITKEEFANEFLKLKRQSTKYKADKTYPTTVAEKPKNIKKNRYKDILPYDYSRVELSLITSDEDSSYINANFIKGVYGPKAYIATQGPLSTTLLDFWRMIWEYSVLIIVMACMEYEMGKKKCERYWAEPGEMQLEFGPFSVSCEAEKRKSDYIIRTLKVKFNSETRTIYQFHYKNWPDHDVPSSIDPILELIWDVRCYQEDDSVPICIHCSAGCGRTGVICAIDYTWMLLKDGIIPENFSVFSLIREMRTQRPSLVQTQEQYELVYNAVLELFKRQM
In words: IC50 after preincubation, DiFMUP phosphatase assay. The procedure: (§1) To further confirm the time-dependent inhibition and determine the IC50 of acquired hits, repurchased compounds from Enamine were serially diluted in a 96-well plate, followed by the addition of proteins at 200 nM. After 10-minute and 60-minute preincubation, 2 µL of the mixture was transferred into 100 µM 6,8-Difluoro-4-Methylumbelliferyl Phosphate (DiFMUP, Invitrogen, cat# D6567) at a final volume of 200 µL. The reaction was allowed to proceed for 5 minutes and quenched by the addition of 40 µl of a 160 µM solution of bpV(Phen) (Sigma-Aldrich, cat# SML0889). The fluorescence signal was measured using a CLARIOstar Plus Microplate Spectrophotometer (BMG Labtech) using excitation and emission wavelengths of 340 nm and 450 nm, respectively. Data were fitted using Prism GraphPad 10.1.1.

The target of a further test is T2, PTP1B (Homo sapiens, UniProt P18031).
T2 construct: PTP1B, residues 1-321; made in house; host or cells: E. coli BL21(DE3)
T2 sequence (P18031 1-321, species assumed): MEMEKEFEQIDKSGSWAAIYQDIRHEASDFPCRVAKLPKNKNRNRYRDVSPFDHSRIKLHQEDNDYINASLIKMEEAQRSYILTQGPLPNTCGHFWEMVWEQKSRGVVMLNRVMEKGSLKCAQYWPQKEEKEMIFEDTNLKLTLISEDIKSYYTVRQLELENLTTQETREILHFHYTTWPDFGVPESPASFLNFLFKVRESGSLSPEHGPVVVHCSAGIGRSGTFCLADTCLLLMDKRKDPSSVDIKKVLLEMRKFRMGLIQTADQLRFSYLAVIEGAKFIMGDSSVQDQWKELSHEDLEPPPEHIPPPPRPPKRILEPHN
The experiment in a line: IC50 after preincubation, DiFMUP phosphatase assay. Here is the method:
as §1

Another test has as its target T3, SHP2 (Homo sapiens, UniProt Q06124).
T3 construct: SHP2, residues 224-528; made in house; host or cells: E. coli BL21(DE3)
T3 sequence (Q06124 224-528): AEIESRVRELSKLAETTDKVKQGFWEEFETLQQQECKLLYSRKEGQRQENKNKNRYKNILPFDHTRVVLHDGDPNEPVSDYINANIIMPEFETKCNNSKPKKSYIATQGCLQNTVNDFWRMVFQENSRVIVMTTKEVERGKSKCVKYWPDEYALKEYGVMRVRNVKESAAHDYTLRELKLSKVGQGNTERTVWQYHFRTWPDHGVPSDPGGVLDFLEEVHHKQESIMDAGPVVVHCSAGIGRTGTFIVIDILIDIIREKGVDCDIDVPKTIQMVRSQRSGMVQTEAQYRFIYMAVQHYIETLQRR
In words: IC50 after preincubation, DiFMUP phosphatase assay. The procedure:
as §1

For a further test, the target named is T4, SHP1 (Homo sapiens, UniProt P29350).
T4 construct: SHP1, residues 245-543; made in house; host or cells: E. coli BL21(DE3)
T4 sequence (P29350 245-543): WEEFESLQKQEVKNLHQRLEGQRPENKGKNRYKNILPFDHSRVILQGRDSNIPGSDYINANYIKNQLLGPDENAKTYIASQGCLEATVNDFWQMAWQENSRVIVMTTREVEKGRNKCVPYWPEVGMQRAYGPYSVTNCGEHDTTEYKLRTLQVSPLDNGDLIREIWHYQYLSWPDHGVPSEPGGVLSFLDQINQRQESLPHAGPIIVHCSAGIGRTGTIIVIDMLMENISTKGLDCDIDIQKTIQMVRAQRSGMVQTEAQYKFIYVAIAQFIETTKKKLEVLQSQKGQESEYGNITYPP
The experiment in a line: IC50 after 10-min/60-min preincubation, DiFMUP phosphatase assay.
From the text: The PTP‐catalyzed reaction involves a nucleophilic attack by the conserved active site Cys side chain on the phosphorus atom of phosphotyrosine in the substrate.^[ [53] ^] As such, the PTPs could serve as prime targets for covalent inhibition. Previously described activity‐based probes or covalent ligands for the PTPs are either phosphotyrosine isosteres or thiol‐reactive compounds that covalently modify the active site residues (including the catalytic Cys) and lack sufficient isozyme specificity.^[ [54], [55], [56], [57], [58], [59], [60], [61] ^] Inspired by the resurgence in covalent inhibitors for difficult drug targets, we set out to discover covalent SHP1 inhibitors by screening for electrophilic fragments that bind covalently to SHP1. This strategy is increasingly utilized to identify novel ligands for a target of interest.^[ [47], [62], [63] ^] We assembled a library of 4600 Cys reactive molecules from the Enamine covalent fragment collections containing 49.0% acrylamide, 38.1% chloroacetamide, 5.15% chloromethylketone, 5.20% activated nitrile, 2.10% epoxide, and 0.53% disulfide (Figure S1A). We carried out a high‐throughput biochemical fragment screening of this curated commercially available library against the SHP1 catalytic domain (residues 245–543). Each fragment (500 µM) was incubated with SHP1 (500 nM) for 30 min at room temperature before diluting the reaction 5.5‐fold with 24.45 mM para‐nitrophenyl phosphate (pNPP) to measure the residual PTP activity. This concentration of substrate was chosen to out‐compete any remaining fragment to reduce the inactivation of SHP1 during the enzymatic hydrolysis of pNPP. After a 2‐min incubation at 25 °C, the reaction was quenched by the addition of 5N NaOH, and the production of para‐nitrophenol was determined by absorbance at 405 nm. This assay format afforded a Z’‐factor of 0.70 (Figure S1B), indicating a robust screen to reliably identify hit molecules. To enhance the probability of discovering covalent ligands with inherent preference for SHP1, we also counter‐screened the same library against SHP2, the closest homolog of SHP1, and two other widely studied PTPs, PTP1B and PTPN22 (also called LYP). […] Among these, 31 were repurchased based on their observed preference for SHP1 and structural diversity, 11 of which were confirmed as potential covalent inhibitors for SHP1 based on the time dependency of their half‐maximal inhibition concentration (IC50) values determined with a 10‐min and 60‐min preincubation time, respectively (Table 1).
as §1

As a reminder, the IC50 is the point on the concentration scale where inhibition reaches its midpoint. Consider `N#Cc1ccsc1NS(=O)(=O)c1ccc(NC(=O)CCl)cc1` [M029, 2-Chloro-N-(4-(N-(3-cyanothiophen-2-yl)sulfamoyl)phenyl)acetamide], for which the IC50 was determined as 88.6 ± 20.1 µM on PTPN22 (60-min preincubation, read-out: 60 min IC50, PTPN22); 152 ± 16.6 µM at PTP1B (60-min preincubation, read-out: 60 min IC50, PTP1B); 58.2 ± 4.6 µM on SHP2 (60-min preincubation, read-out: 60 min IC50, SHP2); 2.6 ± 0.5 µM at SHP1 (60-min preincubation, read-out: 60 min IC50, SHP1). The “selectivity over a large panel of mammalian PTPs” value at SHP1 (60-min preincubation IC50 values, incl. SHP2) is greater than 22.4 fold.
`O=C(CCl)Nc1ccc(S(=O)(=O)Nc2nccs2)cc1` [Z57117023, 2-chloro-N-(4-(N-(thiazol-2-yl)sulfamoyl)phenyl)acetamide]: the IC50 is greater than 200 µM on PTPN22 (10-min preincubation, read-out: PTPN22 IC50, 10 min); greater than 200 µM on PTPN22 (60-min preincubation, read-out: PTPN22 IC50, 60 min); greater than 200 µM on PTP1B (column headed 60 min (c7), read-out: PTP1B IC50, 60 min); greater than 200 µM on SHP2 (10-min preincubation, read-out: SHP2 IC50, 10 min); greater than 200 µM at SHP2 (60-min preincubation, read-out: SHP2 IC50, 60 min); 99.1 µM on SHP1 (10-min preincubation, purchased hits, read-out: SHP1 IC50, 10 min). Besides, the IC50 on SHP1 (60-min preincubation, purchased hits, read-out: SHP1 IC50, 60 min) was 17.5 µM; at SHP1 (resynthesized compound, 10 min preincubation, read-out: SHP1 IC50, 10 min preincubation) it was 118 ± 8.3 µM; at SHP1 (resynthesized compound, 60 min preincubation, read-out: SHP1 IC50, 60 min preincubation) it was 25.2 ± 1.6 µM. Besides, the “selectivity for SHP1 over SHP2, PTP1B, and PTPN22” value on SHP1 (from IC50 values) was greater than 11 fold.
